{"source": "patent US20130123325A1", "about": "“USE OF BOCEPREVIR AND RELATED COMPOUNDS IN ATHEROSCLEROSIS, HEART FAILURE, RENAL DISEASES, LIVER DISEASES OR INFLAMMATORY DISEASES” (priority 2011, published 2013)", "biological_target": "T1, Recombinant human cathepsin A (Homo sapiens, UniProt P10619)", "T1 construct": "Recombinant human cathepsin A (residues 29-480, with a C-terminal 10-His tag); 10-His (C); purchased R & D Systems 1049-SE", "T1 sequence (P10619 29-326 limits assumed)": "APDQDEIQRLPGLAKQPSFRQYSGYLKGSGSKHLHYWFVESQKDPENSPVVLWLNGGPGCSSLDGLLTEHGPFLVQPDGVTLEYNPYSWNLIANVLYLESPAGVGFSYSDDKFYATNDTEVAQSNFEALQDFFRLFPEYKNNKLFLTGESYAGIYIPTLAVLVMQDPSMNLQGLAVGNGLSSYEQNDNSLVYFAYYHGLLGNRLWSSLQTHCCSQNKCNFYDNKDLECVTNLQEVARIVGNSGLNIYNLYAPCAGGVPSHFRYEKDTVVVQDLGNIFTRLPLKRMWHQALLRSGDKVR", "T1 sequence (P10619 327-480 limits assumed)": "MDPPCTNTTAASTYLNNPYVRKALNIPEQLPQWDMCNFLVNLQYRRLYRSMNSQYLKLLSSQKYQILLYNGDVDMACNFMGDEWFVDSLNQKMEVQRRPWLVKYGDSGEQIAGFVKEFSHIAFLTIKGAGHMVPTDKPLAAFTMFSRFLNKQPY", "experiment": "Cathepsin A inhibitory activity", "type": "biochemical", "details": "Bodipy FL-labeled bradykinin substrate 2 μM, pH 5.5, microfluidic capillary electrophoresis", "description": "Recombinant human cathepsin A (residues 29-480, with a C-terminal 10-His tag; R & D Systems, # 1049-SE) was proteolytically activated with recombinant human cathepsin L (R & D Systems, # 952-CY). Briefly, cathepsin A was incubated at 10 μg/ml with cathepsin L at 1 μg/ml in activation buffer (25 mM 2-(morpholin-4-yl)-ethanesulfonic acid (MES), pH 6.0, containing 5 mM dithiothreitol (DTT)) for 15 min at 37° C. Cathepsin L activity was then stopped by the addition of the cysteine protease inhibitor E-64 (N-(trans-epoxysuccinyl)-L-leucine-4-guanidinobutylamide; Sigma-Aldrich, # E3132; dissolved in activation buffer/DMSO) to a final concentration of 10 μM.\nThe activated cathepsin A was diluted in assay buffer (25 mM MES, pH 5.5, containing 5 mM DTT) and mixed with the test compound (dissolved in assay buffer containing (v/v) 3% DMSO) or, in the control experiments, with the vehicle in a multiple assay plate. […]\nUncleaved substrate and product were then separated by a microfluidic capillary electrophoresis on a LabChip® 3000 Drug Discovery System (12-Sipper-Chip; Caliper Life Sciences) and quantified by determination of the respective peak areas. Substrate turnover was calculated by dividing product peak area by the sum of substrate and product peak areas, and the enzyme activity and the inhibitory effect of the test compound thus quantified. […]", "note": "pIC50: −log10 of the molar value."}
{"smiles": "CC(C)(C)NC(=O)N[C@H](C(=O)N1C[C@H]2[C@@H]([C@H]1C(=O)NC(CC1CCC1)C(=O)C(N)=O)C2(C)C)C(C)(C)C", "note": "(stereo partly drawn) [Boceprevir, (1R,2S,5S)—N-[(2E)-4-amino-1-cyclobutyl-3,4-dioxobutan-2-yl]-3-{(2S)-2-[(tert-butylcarbamoyl)amino]-3,3-dimethylbutanoyl}-6,6-dimethyl-3-azabicyclo[3.1.0]hexane-2-carboxamide]", "values": [{"measurement": "pIC50", "result": 6.00}]}
